Results taken from US12102635B2, “Methods of using protein palmitoylations inhibitors” (priority 2021, dated 2024).
Several values for one entry are separate records, joined by “and”; a condition that tells them apart may be missing. Equal values may be shown once.

Tests used:
SARS-CoV-2 spike protein [1] = assay type: cell-based
SARS-CoV-2 = assay type: cell-based
SARS-CoV-2 spike protein [2] = assay type: cell-based, human
HEK293T cells = details: for observable toxicity: XTT, concentrations below 3 μM, relative to DMSO
[3] = system: SARS-COV-2 spike pseudotyped lentivirus; assay type: cell-based
yeast homolog of DHHC9 = molecular target: T1, yeast homolog of DHHC9 (Saccharomyces cerevisiae, UniProt Q06551); details: previous screen; cited from earlier work
T1 sequence (Q06551 1-359): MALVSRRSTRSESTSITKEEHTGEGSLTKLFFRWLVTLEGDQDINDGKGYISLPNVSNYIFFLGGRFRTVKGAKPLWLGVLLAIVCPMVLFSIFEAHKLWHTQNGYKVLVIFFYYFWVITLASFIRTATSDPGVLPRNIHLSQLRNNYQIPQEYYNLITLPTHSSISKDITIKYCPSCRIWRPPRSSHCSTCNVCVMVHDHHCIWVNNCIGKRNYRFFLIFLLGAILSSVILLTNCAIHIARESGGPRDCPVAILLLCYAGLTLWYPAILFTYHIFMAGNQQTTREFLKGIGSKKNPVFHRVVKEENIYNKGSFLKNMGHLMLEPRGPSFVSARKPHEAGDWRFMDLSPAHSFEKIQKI
T1 sequence (P41912 1-237 partner): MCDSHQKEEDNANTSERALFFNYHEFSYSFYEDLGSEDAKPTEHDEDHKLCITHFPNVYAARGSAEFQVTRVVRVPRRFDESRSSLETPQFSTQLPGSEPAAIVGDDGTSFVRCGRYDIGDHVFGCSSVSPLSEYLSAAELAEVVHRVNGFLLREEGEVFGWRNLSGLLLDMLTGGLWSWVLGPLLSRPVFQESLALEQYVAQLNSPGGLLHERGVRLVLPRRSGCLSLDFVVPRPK

Caco-2 cells = details: XTT, concentrations below 3 μM, relative to DMSO
SARS-CoV-2-mNG = assay type: cell-based
[4] = system: SARS-COV-2 spike pseudotyped lentivirus; assay type: cell-based; remark: listed apart in the source
[5] = system: SARS-COV-2 spike pseudotyped lentivirus; assay type: cell-based; remark: listed apart in the source
GAPDH = assay type: cell-based, human; details: 10 μM, HEK293T cells

SMILES | reduction of palmitoylation of the spike protein (SARS-CoV-2 spike protein [1]) [%] | reduction viral infection of Vero-E6 cells (SARS-CoV-2) [%] | reduction in syncytia formation (SARS-CoV-2 spike protein [2]) | maximal non-toxic concentration (HEK293T cells) [µM] | observable toxicity (HEK293T cells) | quantity of pseudovirus released from the producer cells (egress) [3] | inhibition of palmitoylation (yeast homolog of DHHC9) | observable toxicity (Caco-2 cells) | mNeonGreen signal (SARS-CoV-2-mNG) | spike palmitoylation (SARS-CoV-2 spike protein [1]) | luciferase signal (pseudovirus infection) [4] | pseudovirus infection (luciferase) [5] | GAPDH palmitoylation (GAPDH)
CC(C)Cc1ccc(C(C)CN2CCNC[C@@H]2CCCCN2CCN(CC(C)c3ccc(CC(C)C)cc3)[C@@H](Cc3ccc(O)cc3)C2)cc1 (stereo partly drawn) [Compound 2, 4-(((2S)-1-(2-(4-isobutylphenyl)propyl)-4-(4-((2S)-1-(2-(4-isobutylphenyl)propyl)piperazin-2-yl)butyl)piperazin-2-yl)methyl) phenol] | 37 | 60 | 58% and 60% | 3 | no observable toxicity | do not reduce the quantity of pseudovirus released | low micromolar concentrations | no observable toxicity | dose dependent reduction in mNeonGreen signal | – | – | – | –
CCCCCCCCCCCCCCC(Br)C(=O)O (centres unmarked) [Compound 2-BP, 2-bromopalmitic acid, reference compound] | – | – | – | – | – | – | – | – | dose dependent reduction in mNeonGreen signal | inhibited spike palmitoylation | reduced luciferase signal significantly | significant reduction in pseudovirus infection | reduced
CC(C)Cc1ccc(C(C)CN2CCN(CCCC[C@H]3CNCCN3CCc3cc(C(F)(F)F)cc(C(F)(F)F)c3)C[C@@H]2Cc2ccc(O)cc2)cc1 (stereo partly drawn) [Compound 3, 4-(((2S)-4-(4-((S)-1-(3,5-bis(trifluoromethyl)phenethyl)piperazin-2-yl)butyl)-1-(2-(4-isobutylphenyl)propyl)piperazin-2-yl)methyl) phenol] | 44 | 76 | 45% and 50% | 3 | no observable toxicity | do not reduce the quantity of pseudovirus released | low micromolar concentrations | no observable toxicity | dose dependent reduction in mNeonGreen signal | – | – | – | –
